Measurements: ChEMBL document CHEMBL1150586, “Goniolactones A-F, six new styrylpyrone derivatives from the roots of Goniothalamus cheliensis” (J Nat Prod, 2002)

Key:
Type in all cases: functional, cell-based
A2780 = test: Cytotoxicity against human A2780 cells after 5 days by MTT assay; conditions: A2780, 120 h
HCT-8 = test: Cytotoxicity against human HCT8 cells after 5 days by MTT assay; conditions: HCT-8, 120 h
KB = test: Cytotoxicity against human KB cells after 5 days by MTT assay; conditions: 120 h

O=C1C=CC[C@H]([C@H](O)[C@@H](c2ccccc2)c2c(O)cc3c(c2O)C(=O)C[C@@H](c2ccccc2)O3)O1 [GONIOLACTONE B]
IC50 (A2780): 7.4 µM | IC50 (HCT-8): 4.43 µM | IC50 (KB): 7.23 µM
